From ChEMBL document CHEMBL1201862, “PubChem BioAssay data set” (2004)
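Exposure lasted 48 hours, with cells grown in 96-well plates and compounds tested at five concentrations. GI50: concentration for 50% inhibition of growth.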 Calls of active or inactive are those of the source. No stated cut-off is given here; in the data, active = GI50 up to about 1.1 µM and inactive = higher.

Assays:
Assay in all cases: growth of human tumour cells (NCI), 48 h
MDA-N = test system: MDA-N
PC-3 = test system: PC-3
TK-10 = test system: TK-10
SR = test system: SR
SK-MEL-2 = test system: SK-MEL-2
MDA-MB-231 = test system: MDA-MB-231
786-0 = test system: 786-0
OVCAR-3 = test system: OVCAR-3
T47D = test system: T47D
Hs-578T = test system: Hs-578T
Malme-3M = test system: Malme-3M
MCF7 = test system: MCF7
DU-145 = test system: DU-145
ACHN = test system: ACHN
M14 = test system: M14
HOP-92 = test system: HOP-92
SNB-78 = test system: SNB-78
DLD-1 = test system: DLD-1
MDA-MB-435 = test system: MDA-MB-435

Compound	GI50 (MDA-N)	GI50 (PC-3)	GI50 (TK-10)	GI50 (SR)	GI50 (SK-MEL-2)	GI50 (MDA-MB-231)	GI50 (786-0)	GI50 (OVCAR-3)	GI50 (T47D)	GI50 (Hs-578T)	GI50 (Malme-3M)	GI50 (MCF7)	GI50 (DU-145)	GI50 (ACHN)	GI50 (M14)	GI50 (HOP-92)	GI50 (SNB-78)	GI50 (DLD-1)	GI50 (MDA-MB-435)
Cc1ccc(S(=O)(=O)NC(=O)NC2=NC(C)(C)N(c3ccc(Cl)c(Cl)c3)C(N)=N2)cc1	5.04 µM (inactive)	0.552 µM (active)	84.7 µM (inactive)	8.75 µM (inactive)	> 100 µM (inactive)	7.98 µM (inactive)	8.3 µM (inactive)	> 100 µM (inactive)	10.4 µM (inactive)	47.8 µM (inactive)	4.01 µM (inactive)	25.8 µM (inactive)	64.4 µM (inactive)	11.1 µM (inactive)	17.6 µM (inactive)				
Cc1ccccc1NC(=O)C(=O)C(C1OC(=O)c2ccccc21)[N+](=O)[O-] (stereo not drawn)			> 100 µM (inactive)	> 100 µM (inactive)	> 100 µM (inactive)									> 100 µM (inactive)	> 100 µM (inactive)	> 100 µM (inactive)	> 100 µM (inactive)	> 100 µM (inactive)	
COc1ccccc1-c1cc(O)c2c(C)ccnc2n1			> 100 µM (inactive)	14.2 µM (inactive)	26.7 µM (inactive)	26.7 µM (inactive)			16.2 µM (inactive)	11.5 µM (inactive)	39 µM (inactive)	26.5 µM (inactive)	41.2 µM (inactive)	28.4 µM (inactive)	42.4 µM (inactive)	66.7 µM (inactive)			
O=C(c1ccccc1)N1C(=S)NC(=N/c2ccccc2)/C1=N\c1ccccc1	> 100 µM (inactive)	> 100 µM (inactive)	> 100 µM (inactive)	> 100 µM (inactive)	> 100 µM (inactive)	> 100 µM (inactive)	> 100 µM (inactive)		> 100 µM (inactive)	> 100 µM (inactive)	> 100 µM (inactive)		> 100 µM (inactive)	> 100 µM (inactive)					> 100 µM (inactive)
CC(=O)OC1CCC2(C)C(=CCC3C2CCC2(C)C3CC3OC4(CCC(C)CN4)C(C)C32)C1 (stereo not drawn)	> 100 µM (inactive)	> 100 µM (inactive)	> 100 µM (inactive)	80.2 µM (inactive)	> 100 µM (inactive)	> 100 µM (inactive)	74.3 µM (inactive)	> 100 µM (inactive)	> 100 µM (inactive)	> 100 µM (inactive)	> 100 µM (inactive)	> 100 µM (inactive)	> 100 µM (inactive)	> 100 µM (inactive)	> 100 µM (inactive)	> 100 µM (inactive)			> 100 µM (inactive)
ClCCN1CCOC1=C1C=CC=C1		> 100 µM (inactive)		19.3 µM (inactive)		> 100 µM (inactive)	> 100 µM (inactive)	> 100 µM (inactive)	> 100 µM (inactive)	> 100 µM (inactive)		> 100 µM (inactive)	> 100 µM (inactive)	> 100 µM (inactive)	> 100 µM (inactive)	> 100 µM (inactive)			> 100 µM (inactive)
O=C1CN(c2cccc(C(F)(F)F)c2)C(=O)CN1CCN1CC(=O)N(c2cccc(C(F)(F)F)c2)CC1=O	> 100 µM (inactive)	> 100 µM (inactive)	> 100 µM (inactive)	> 100 µM (inactive)		> 100 µM (inactive)	> 100 µM (inactive)		> 100 µM (inactive)	> 100 µM (inactive)		> 100 µM (inactive)		> 100 µM (inactive)	> 100 µM (inactive)				> 100 µM (inactive)
CO/N=C(\C)c1ccc(Nc2nc3ccccc3c3occc23)cc1	14.6 µM (inactive)	16.2 µM (inactive)	12.4 µM (inactive)	24.7 µM (inactive)	18 µM (inactive)	12.7 µM (inactive)	14.2 µM (inactive)	30.2 µM (inactive)	12.6 µM (inactive)	12.5 µM (inactive)	14.6 µM (inactive)	13.8 µM (inactive)	15.5 µM (inactive)	14 µM (inactive)	16.3 µM (inactive)	13.8 µM (inactive)			16.4 µM (inactive)
Cc1ccc(C(=O)N/N=C(\N=N\c2ccc([N+](=O)[O-])cc2)c2ccc(N(CCC#N)CCC#N)cc2C)cc1	78.9 µM (inactive)	50.1 µM (inactive)	> 100 µM (inactive)	63.8 µM (inactive)	49.5 µM (inactive)	> 100 µM (inactive)	73.5 µM (inactive)	39.6 µM (inactive)	26.6 µM (inactive)	50.1 µM (inactive)	> 100 µM (inactive)	83.6 µM (inactive)	97.1 µM (inactive)	> 100 µM (inactive)	58.3 µM (inactive)	> 100 µM (inactive)			67.8 µM (inactive)
CCC(/C=C/c1ccccc1)=N\Nc1ccc(Cl)c(Cl)c1	34.3 µM (inactive)	55.6 µM (inactive)	56.6 µM (inactive)	34.8 µM (inactive)	17.7 µM (inactive)	17.8 µM (inactive)	34.4 µM (inactive)	25.7 µM (inactive)	49.9 µM (inactive)	55.3 µM (inactive)	32.1 µM (inactive)	28.7 µM (inactive)	89.1 µM (inactive)	26.7 µM (inactive)	56.4 µM (inactive)	13.6 µM (inactive)			33.3 µM (inactive)
COC1/C=C/C=C(/C)Cc2cc(O)c(Cl)c(c2)N(C)C(=O)CC(OC(=O)C(C)C)C2(C)OC2C(C)C2CC1(O)NC(=O)O2 (stereo not drawn)	< 0.01 µM (active)	< 0.01 µM (active)		< 0.01 µM (active)		< 0.01 µM (active)		< 0.01 µM (active)	> 100 µM (inactive)			< 0.01 µM (active)	< 0.01 µM (active)		< 0.01 µM (active)	64.9 µM (inactive)			< 0.01 µM (active)
CCOC(=O)c1ccc(Nc2cnc3cc(C(F)(F)F)ccc3n2)cc1	> 100 µM (inactive)	> 100 µM (inactive)	> 100 µM (inactive)	> 100 µM (inactive)		> 100 µM (inactive)	40.3 µM (inactive)	> 100 µM (inactive)	> 100 µM (inactive)	> 100 µM (inactive)	> 100 µM (inactive)	> 10 µM (inactive)	> 100 µM (inactive)	> 100 µM (inactive)		> 100 µM (inactive)			> 100 µM (inactive)
BrC1=CN2C[n+]3cc(Br)c4ccccc4c3N=C2c2ccccc21	6.81 µM (inactive)	13.6 µM (inactive)	26.8 µM (inactive)	3.18 µM (inactive)	7.57 µM (inactive)	15 µM (inactive)		2.88 µM (inactive)	4.14 µM (inactive)	22.1 µM (inactive)	2.75 µM (inactive)	4.42 µM (inactive)	16.6 µM (inactive)	14.8 µM (inactive)	5.92 µM (inactive)	10.5 µM (inactive)			6.18 µM (inactive)
COC(=O)/C=C1\CCC(C)(C(=O)NS(=O)(=O)c2ccc(C)cc2)C1(C)C (stereo not drawn)	> 100 µM (inactive)	> 100 µM (inactive)	> 100 µM (inactive)		> 100 µM (inactive)	> 100 µM (inactive)	> 100 µM (inactive)	> 100 µM (inactive)	> 100 µM (inactive)		> 100 µM (inactive)	> 100 µM (inactive)	> 100 µM (inactive)	> 100 µM (inactive)	> 100 µM (inactive)	> 100 µM (inactive)			4.48 µM (inactive)
